Results on 23 molecules are retold here after US8530493B2, “Indolopyridines as Eg5 kinesin modulators” (4SC AG, priority 2006, dated 2013).

SMILES strings stand for the structures. Bounds are passed on as bounds.

For this test, the system named is RKO p21 uninduced (proliferating) colon adenocarcinoma cells. The test is described as follows: Alamar Blue cell viability assay, RKO p21 uninduced (proliferating). The test is classed as cell-based. The following applies: Homo sapiens, Table B3, anti-proliferative/cytotoxic activity, 72 hours, read-out: −log EC50 RKO p21 uninduced (proliferating) (converted). The procedure, abridged:
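RKO p21 or p27 subclones grown without Ponasterone A, i.e. proliferating, exposed 24 h after seeding to semi-log compound dilutions in DMEM/10% FCS (1% DMSO controls) for 72 h at 37° C. Alamar Blue fluorescence (544/590 nm) read relative to untreated cells; EC50 from dose-response curves, given as −log EC50 (mol/l).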
For orientation: Resazurin is reduced to fluorescent resorufin, in cell work by metabolically active cells.
Consider `CCN(CCO)CCN1C(=O)N2[C@H](c3cccc(O)c3)c3[nH]c4cc(F)c(Cl)cc4c3C[C@@]2(C)C1=O` (racemic) [Example 349, (3aSR,10RS)-6-Chloro-2-{2-[ethyl-(2-hydroxy-ethyl)-amino]-ethyl}-7-fluoro-10-(3-hydroxy-phenyl)-3a-methyl-3a,4,9,10-tetrahydro-2,9,10a-triaza-cyclopenta[b]fluorene-1,3-dione], for which the EC50 was 39.8 to 251 nM.
As for `CCOc1ccc2[nH]c3c(c2c1)C[C@@]1(C)C(=O)N(CCN2CC=CCC2)C(=O)N1[C@@H]3c1cccc(O)c1` (racemic) [Example 165, (3aSR,10RS)-2-[2-(3,6-Dihydro-2H-pyridin-1-yl)-ethyl]-6-ethoxy-10-(3-hydroxy-phenyl)-3a-methyl-3a,4,9,10-tetrahydro-2,9,10a-triaza-cyclopenta[b]fluorene-1,3-dione], the figure is 39.8 to 251 nM; as for `C=CCNCCCN1C(=O)N2[C@H](c3cccc(O)c3)c3[nH]c4ccc(OCC)cc4c3C[C@@]2(C)C1=O` (racemic) [Example 191, (3aSR,10RS)-2-(3-Allylamino-propyl)-6-ethoxy-10-(3-hydroxy-phenyl)-3a-methyl-3a,4,9,10-tetrahydro-2,9,10a-triaza-cyclopenta[b]bluorene-1,3-dione], 39.8 to 251 nM; as for `COc1cc2c3c([nH]c2cc1F)[C@@H](c1cccc(O)c1)N1C(=O)N(CCN(C)CCO)C(=O)[C@]1(C)C3` [Example 246, (3aS,10R)-7-Fluoro-2-{2-[(2-hydroxy-ethyl)-methyl-amino]-ethyl}-10-(3-hydroxy-phenyl)-6-methoxy-3a-methyl-3a,4,9,10-tetrahydro-2,9,10a-triaza-cyclopenta[b]fluorene-1,3-dione], 39.8 to 251 nM.
With `CC(C)NCCN1C(=O)N2[C@H](c3cccc(O)c3)c3[nH]c4ccc(OC(F)F)cc4c3C[C@@]2(C)C1=O` (racemic) [Example 268, (3aSR,10RS)-6-(1,1-Difluoro-methoxy)-10-(3-hydroxy-phenyl)-2-(2-isopropylamino-ethyl)-3a-methyl-3a,4,9,10-tetrahydro-2,9,10a-triaza-cyclopenta[b]fluorene-1,3-dione], the EC50 is not above 39.8 nM.
For the molecule `CC(=O)N1CCN(CCCN2C(=O)N3[C@H](c4cccc(O)c4)c4[nH]c5cc(F)c(Cl)cc5c4C[C@@]3(C)C2=O)CC1` (racemic) [Example 482, (3aSR,10RS)-2-[3-(4-Acetyl-piperazin-1-yl)-propyl]-6-chloro-7-fluoro-10-(3-hydroxy-phenyl)-3a-methyl-3a,4,9,10-tetrahydro-2,9,10a-triaza-cyclopenta[b]fluorene-1,3-dione], the EC50 was 39.8 to 251 nM.
As for `CCN(CCOC)CCN1C(=O)N2[C@H](c3cccc(O)c3)c3[nH]c4ccc(OC(F)F)cc4c3C[C@@]2(C)C1=O` (racemic) [Example 289, (3aSR,10RS)-6-(1,1-Difluoro-methoxy)-2-{2-[ethyl-(2-methoxy-ethyl)-amino]-ethyl}-10-(3-hydroxy-phenyl)-3a-methyl-3a,4,9,10-tetrahydro-2,9,10a-triaza-cyclopenta[b]fluorene-1,3-dione], the EC50 was 39.8 to 251 nM.
Next, `CCOc1ccc2[nH]c3c(c2c1)C[C@@]1(C)C(=O)N(CCN2CCC(C)CC2)C(=O)N1[C@@H]3c1cccc(O)c1` (racemic) [Example 302, (3aSR,10RS)-6-Ethoxy-10-(3-hydroxy-phenyl)-3a-methyl-2-[2-(4-methyl-piperidin-1-yl)-ethyl]-3a,4,9,10-tetrahydro-2,9,10a-triaza-cyclopenta[b]fluorene-1,3-dione]: 39.8 to 251 nM.
Take `CN(CCO)CCN1C(=O)N2[C@H](c3cccc(O)c3)c3[nH]c4ccc(Br)cc4c3C[C@@]2(C)C1=O` (racemic) [Example 384, (3aSR,10RS)-6-Bromo-2-{2-[(2-hydroxy-ethyl)-methyl-amino]-ethyl}-10-(3-hydroxy-phenyl)-3a-methyl-3a,4,9,10-tetrahydro-2,9,10a-triaza-cyclopenta[b]fluorene-1,3-dione]: the EC50 is not above 39.8 nM.
Take `C[C@@]12Cc3c([nH]c4ccc(Br)cc34)[C@@H](c3cccc(O)c3)N1C(=O)N(CCCN1CCCCC1)C2=O` (racemic) [Example 373, (3aSR,10RS)-6-Bromo-10-(3-hydroxy-phenyl)-3a-methyl-2-(3-piperidin-1-yl-propyl)-3a,4,9,10-tetrahydro-2,9,10a-triaza-cyclopenta[b]fluorene-1,3-dione]: the EC50 is not above 39.8 nM.
For the molecule `CCNCCCN1C(=O)N2[C@H](c3cccc(O)c3)c3[nH]c4cc(F)c(Cl)cc4c3C[C@@]2(C)C1=O` (racemic) [Example 457, (3aSR,10RS)-6-Chloro-2-(3-ethylamino-propyl)-7-fluoro-10-(3-hydroxy-phenyl)-3a-methyl-3a,4,9,10-tetrahydro-2,9,10a-triaza-cyclopenta[b]fluorene-1,3-dione], the EC50 was 39.8 to 251 nM.
With `C[C@@]12Cc3c([nH]c4cc(F)c(Cl)cc34)[C@@H](c3cccc(O)c3)N1C(=O)N(CCN1CC=CC1)C2=O` (racemic) [Example 355, (3aSR,10RS)-6-Chloro-2-[2-(2,5-dihydro-pyrrol-1-yl)-ethyl]-7-fluoro-10-(3-hydroxy-phenyl)-3a-methyl-3a,4,9,10-tetrahydro-2,9,10a-triaza-cyclopenta[b]fluorene-1,3-dione], the EC50 is 39.8 to 251 nM.
`C[C@@]12Cc3c([nH]c4cc(F)c(Cl)cc34)[C@@H](c3cccc(O)c3)N1C(=O)N(CCCNCCO)C2=O` (racemic) [Example 461, (3aSR,10RS)-6-Chloro-7-fluoro-2-[3-(2-hydroxy-ethylamino)-propyl]-10-(3-hydroxy-phenyl)-3a-methyl-3a,4,9,10-tetrahydro-2,9,10a-triaza-cyclopenta[b]fluorene-1,3-dione]: the EC50 was 39.8 to 251 nM.
Regarding `C[C@@]12Cc3c([nH]c4ccc(Br)cc34)[C@@H](c3cccc(O)c3)N1C(=O)N(CCCN1CC=CCC1)C2=O` (racemic) [Example 232, (3aSR,10RS)-6-Bromo-2-[3-(3,6-dihydro-2H-pyridin-1-yl)-propyl]-10-(3-hydroxy-phenyl)-3a-methyl-3a,4,9,10-tetrahydro-2,9,10a-triaza-cyclopenta[b]fluorene-1,3-dione], the EC50 is not above 39.8 nM.
As for `CCOc1ccc2[nH]c3c(c2c1)C[C@@]1(C)C(=O)N(CCCN(C)CC)C(=O)N1[C@@H]3c1cccc(O)c1` (racemic) [Example 192, (3aSR,10RS)-6-Ethoxy-2-[3-(ethyl-methyl-amino)-propyl]-10-(3-hydroxy-phenyl)-3a-methyl-3a,4,9,10-tetrahydro-2,9,10a-triaza-cyclopenta[b]fluorene-1,3-dione], the figure is 39.8 to 251 nM; as for `COc1cc2c3c([nH]c2cc1F)[C@@H](c1cccc(O)c1)N1C(=O)N(CCCNC(C)(C)C)C(=O)[C@]1(C)C3` (racemic) [Example 308, (3aSR,10RS)-2-(3-tert-Butylamino-propyl)-7-fluoro-10-(3-hydroxy-phenyl)-6-methoxy-3a-methyl-3a,4,9,10-tetrahydro-2,9,10a-triaza-cyclopenta[b]fluorene-1,3-dione], 39.8 to 251 nM.
Next, `CCOc1ccc2[nH]c3c(c2c1)C[C@@]1(C)C(=O)N(CCN2CCCCC2)C(=O)N1[C@@H]3c1cccc(O)c1` (racemic) [Example 164, (3aSR,10RS)-6-Ethoxy-10-(3-hydroxy-phenyl)-3a-methyl-2-(2-piperidin-1-yl-ethyl)-3a,4,9,10-tetrahydro-2,9,10a-triaza-cyclopenta[b]fluorene-1,3-dione]: 39.8 to 251 nM; `C#CCNCCN1C(=O)N2[C@H](c3cccc(O)c3)c3[nH]c4ccc(OC(F)F)cc4c3C[C@@]2(C)C1=O` (racemic) [Example 287, (3aSR,10RS)-6-(1,1-Difluoro-methoxy)-10-(3-hydroxy-phenyl)-3a-methyl-2-(2-prop-2-ynylamino-ethyl)-3a,4,9,10-tetrahydro-2,9,10a-triaza-cyclopenta[b]fluorene-1,3-dione]: 39.8 to 251 nM; `CNCCCN1C(=O)N2[C@H](c3cccc(O)c3)c3[nH]c4cc(F)c(OC)cc4c3C[C@@]2(C)C1=O` (racemic) [Example 303, (3aSR,10RS)-7-Fluoro-10-(3-hydroxy-phenyl)-6-methoxy-3a-methyl-2-(3-methylamino-propyl)-3a,4,9,10-tetrahydro-2,9,10a-triaza-cyclopenta[b]fluorene-1,3-dione]: 39.8 to 251 nM.
In the case of `C[C@@]12Cc3c([nH]c4cc(F)c(Cl)cc34)[C@@H](c3cccc(O)c3)N1C(=O)N(CCCN1CCCCCC1)C2=O` (racemic) [Example 483, (3aSR,10RS)-2-(3-Azepan-1-yl-propyl)-6-chloro-7-fluoro-10-(3-hydroyx-phenyl)-3a-methyl-3a,4,9,10-tetrahydro-2,9,10a-triaza-cyclopenta[b]fluorene-1,3-dione], the EC50 was 39.8 to 251 nM.
As for `CCOc1ccc2[nH]c3c(c2c1)C[C@@]1(C)C(=O)N(CCCN2CCN(C)CC2)C(=O)N1[C@@H]3c1cccc(O)c1` (racemic) [Example 229, (3aSR,10RS)-6-Ethoxy-10-(3-hydroxy-phenyl)-3a-methyl-2-[3-(4-methyl-piperazin-1-yl)-propyl]-3a,4,9,10-tetrahydro-2,9,10a-triaza-cyclopenta[b]fluorene-1,3-dione], the figure is 39.8 to 251 nM; as for `CCN(CCO)CCN1C(=O)N2[C@H](c3cccc(O)c3)c3[nH]c4ccc(Br)cc4c3C[C@@]2(C)C1=O` (racemic) [Example 379, (3aSR,10RS)-6-Bromo-2-{2-[ethyl-(2-hydroxy-ethyl)-amino]-ethyl}-10-(3-hydroxy-phenyl)-3a-methyl-3a,4,9,10-tetrahydro-2,9,10a-triaza-cyclopenta[b]fluorene-1,3-dione], not above 39.8 nM.
Next, `CC1CCN(CCCN2C(=O)N3[C@H](c4cccc(O)c4)c4[nH]c5ccc(OC(F)F)cc5c4C[C@@]3(C)C2=O)CC1` (racemic) [Example 244, (3aSR,10RS)-6-(1,1-Difluoro-methoxy)-10-(3-hydroxy-phenyl)-3a-methyl-2-[3-(4-methyl-piperidin-1-yl)-propyl]-3a,4,9,10-tetrahydro-2,9,10a-triaza-cyclopenta[b]fluorene-1,3-dione]: 39.8 to 251 nM.

By EC50 is commonly meant the concentration at which the effect is half-maximal.
